Measured values reported in patent US6855705B1, “11-O-methylgeldanamycin compounds” (Kosan Biosciences, Inc., priority 2003, dated 2005).
pKd: −log10 of the molar value. Where two headings read alike, the source gives them in different places.

Tests used:
Hsp90 = Hsp90 (Homo sapiens, UniProt P07900); assay: Hsp90 binding (filter binding assay)
MCF-7 = assay: Cytotoxicity, MCF-7; details: Homo sapiens, MCF7, read-out: Compound Cytotoxicity (IC50, nM)
A-549 = assay: Cytotoxicity, A-549; details: Homo sapiens, A549, read-out: Compound Cytotoxicity (IC50, nM)
SKOV-3 = assay: Cytotoxicity, SKOV-3; details: Homo sapiens, SK-OV-3, read-out: Compound Cytotoxicity (IC50, nM)
CCRF-CEM = assay: Cytotoxicity, CCRF-CEM; details: Homo sapiens, read-out: Compound Cytotoxicity (IC50, nM)
HL-60/MX2 = assay: Cytotoxicity, HL-60/MX2; details: Homo sapiens, HL60/MX2, read-out: Compound Cytotoxicity (IC50, nM)
CCRF-CEM/VBL = assay: Cytotoxicity, CCRF-CEM/VBL; details: Homo sapiens, read-out: Compound Cytotoxicity (IC50, nM)
CCRF-CEM/taxol = assay: Cytotoxicity, CCRF-CEM/taxol; details: Homo sapiens, read-out: Compound Cytotoxicity (IC50, nM)
CCRF-CEM/VP-16 = assay: Cytotoxicity, CCRF-CEM/VP-16; details: Homo sapiens, read-out: Compound Cytotoxicity (IC50, nM)
SKBr3 cells = assay: Cytotoxicity against SKBr3 cells (CellTiter-Glo, 72 h); details: Homo sapiens, SK-BR-3, 72 h, read-out: Cytotoxicity against SKBr3 Cells (IC50, nM)
Experimental: Cytotoxicity was determined with SKBr3 cells (ATCC HTB-30), a breast cancer cell line. […] Cells were plated into 96-well microtiter back plates at 4,000 cells per 50 μL per well, overnight. Serial 10× dilutions of test compound (10 μM to 0.1 μM) in cell culture media were prepared with a Biomek 2000 apparatus, using the protocols of deeper-1000 μL, media and deeper-1000 μL-dilution. 50 μL of each dilution was added to wells containing cells. Each compound or control (medium only) was tested in duplicate. For each assay, the wells contained a final volume of 100 μL (50 μL of cells and 50 μL of compound dilution). After incubating for 72 h, the plates were let stand at room temperature for 30 min. CellTiter-Glo Luminescent Reagent (Promega #G7573) (100 μL) was added to each well. The well contents were mixed for 5 min and the plates were kept at room temperature for another 30 min. Luminescence was recorded using a Wallac VICTOR^2 Multilabel Counter (PerkinElmer) and IC50 values were determined using Kaleidagraph software (Synergy Software).

[1] = filter binding assay, read-out: Hsp90 Binding (Kd)

Compound | pKd (Hsp90) | IC50 (MCF-7) | IC50 (A-549) | IC50 (SKOV-3) | IC50 (CCRF-CEM) | IC50 (HL-60/MX2) | IC50 (CCRF-CEM/VBL) | IC50 (CCRF-CEM/taxol) | IC50 (CCRF-CEM/VP-16) | IC50 (SKBr3 cells) | pKd (Hsp90; [1])
CO[C@H]1[C@@H](OC)C[C@H](C)CC2=C(N3CCC3)C(=O)C=C(NC(=O)/C(C)=C/C=C\[C@H](OC)[C@@H](OC(N)=O)/C(C)=C/[C@@H]1C)C2=O [Compound I-a, 11-O-methyl-17-(1-azetidinyl)-17-demethoxygeldanamycin] | 5.40 | 63 nM | 29 nM | 110 nM | 420 nM | 600 nM | 2500 nM | 2500 nM | 1400 nM | 24 nM | –
CO[C@H]1[C@@H](OC)C[C@H](C)CC2=C(NCCN(C)C)C(=O)C=C(NC(=O)/C(C)=C/C=C\[C@H](OC)[C@@H](OC(N)=O)/C(C)=C/[C@@H]1C)C2=O [Compound I-b, 11-O-methyl-17-(2-dimethylaminoethyl)amino-17-demethoxy-geldanamycin] | – | 50 nM | 23 nM | 43 nM | 58 nM | 62 nM | 960 nM | 390 nM | 65 nM | 12 nM | 6.10
CO[C@H]1[C@@H](OC)C[C@H](C)CC2=C(NCCF)C(=O)C=C(NC(=O)/C(C)=C/C=C\[C@H](OC)[C@@H](OC(N)=O)/C(C)=C/[C@@H]1C)C2=O [Compound I-c, 11-O-methyl-17-(2-fluoroethyl)amino-17-demethoxygeldana-mycin] | 5.64 | 58 nM | 67 nM | 460 nM | 960 nM | 440 nM | 2500 nM | 2700 nM | 2500 nM | 250 nM | –
CO[C@H]1[C@@H](OC)C[C@H](C)CC2=C(NCCN3CC3)C(=O)C=C(NC(=O)/C(C)=C/C=C\[C@H](OC)[C@@H](OC(N)=O)/C(C)=C/[C@@H]1C)C2=O [Compound I-d, 11-O-methyl-17-(2-(1-aziridinyl)ethyl)amino-17-demethoxygelda-namycin] | 5.68 | – | – | – | – | – | – | – | – | 36 nM | –
COC1=C2C[C@@H](C)C[C@H](OC)[C@H](OC)[C@@H](C)/C=C(\C)[C@H](OC(N)=O)[C@@H](OC)/C=C\C=C(/C)C(=O)NC(=CC1=O)C2=O [Compound I-e, 11-O-methyl-geldanamycin] | – | – | – | – | – | – | – | – | – | 9.1 nM | 6.31
CO[C@H]1[C@@H](OC)C[C@H](C)CC2=C(N)C(=O)C=C(NC(=O)/C(C)=C/C=C\[C@H](OC)[C@@H](OC(N)=O)/C(C)=C/[C@@H]1C)C2=O [Compound I-f] | – | 350 nM | 37 nM | 200 nM | 250 nM | 930 nM | 2500 nM | 850 nM | 530 nM | 84 nM | 6.49
C=CCNC1=C2C[C@@H](C)C[C@H](OC)[C@H](OC)[C@@H](C)/C=C(\C)[C@H](OC(N)=O)[C@@H](OC)/C=C\C=C(/C)C(=O)NC(=CC1=O)C2=O [Compound I-g, 11-O-methyl-17-allylamino-17-demethoxygeldanamycin] | – | 760 nM | 360 nM | 1300 nM | 2500 nM | 3000 nM | > 5000 nM | 3500 nM | 4000 nM | 280 nM | 5.55
CO[C@H]1[C@@H](OC)C[C@H](C)CC2=C(NCCc3c[nH]cn3)C(=O)C=C(NC(=O)/C(C)=C/C=C\[C@H](OC)[C@@H](OC(N)=O)/C(C)=C/[C@@H]1C)C2=O [Compound I-h, 11-O-methyl-17-(2-(4-imidazolyl)ethyl)amino-17-demethoxy-geldanamycin] | – | 160 nM | 420 nM | 320 nM | 510 nM | 2500 nM | > 5000 nM | 3000 nM | 2500 nM | 60 nM | 5.70
CO[C@H]1[C@@H](OC)C[C@H](C)CC2=C(NCCN3CCC3)C(=O)C=C(NC(=O)/C(C)=C/C=C\[C@H](OC)[C@@H](OC(N)=O)/C(C)=C/[C@@H]1C)C2=O [Compound I-i, 11-O-methyl-17-(2-(1-azetidinyl)ethyl)amino 17-demethoxy-geldanamycin] | – | 51 nM | 26 nM | 65 nM | 85 nM | 110 nM | 2500 nM | 510 nM | 140 nM | 130 nM | 6.02
CO[C@H]1[C@@H](OC)C[C@H](C)CC2=C(NCCN3CCCC3)C(=O)C=C(NC(=O)/C(C)=C/C=C\[C@H](OC)[C@@H](OC(N)=O)/C(C)=C/[C@@H]1C)C2=O [Compound I-j, 11-O-methyl-17-(2-(1-pyrrolidinyl)ethyl)amino-17-demethoxygeldanamycin] | – | 76 nM | 62 nM | 69 nM | 160 nM | 98 nM | 2500 nM | 520 nM | 170 nM | 160 nM | 6.02
COC1=C2C[C@@H](C)C[C@H](OC)[C@H](O)[C@@H](C)/C=C(\C)[C@H](OC(N)=O)[C@@H](OC)/C=C\C=C(/C)C(=O)NC(=CC1=O)C2=O [Geldanamycin] | – | – | – | – | – | – | – | – | – | 23 nM | –
